Measurements as given in patent publication US12102104B2, “Carbonation sensation enhancing agent for foods and beverages having carbonate stimulation” (Ogawa & Co., Ltd., priority 2018, dated 2024).

Tests used:
expert panelists [1] = assay: Test Example 2: sensory comparison of polygodial with known carbonation sensation enhancing agents; format: in vivo, human
Protocol: Sensory evaluation of the samples of Example 4 and Comparative Examples 3 to 11 was performed by 10 expert panelists based on the following Evaluation criteria 1 to 3 using the carbonated water for evaluation of Preparation Example 1 as a control.
[Evaluation Criteria 1] (Strength of Carbonate Stimulation)
(Mode of Generation of Carbonate Stimulation)
Mode of generation of carbonate stimulation was defined as follows and the timing when the highest effect was felt was selected. The timing that won a majority (6 panelists or more) was regarded as the mode of generation of carbonate stimulation of the substance. In the case of a tie (5 panelists for each), the result was referred to as middle.
Initial: stimulation felt immediately after the sample was put in one's mouth. The impact at the moment when one took the sample.
Last: stimulation felt after swallowing the sample. Aftertaste and feeling when going down. Delayed effect.
[Evaluation Criteria 3] (Characteristics of Flavor)
Majority opinions were obtained from panelists' free descriptions of characteristics of flavor they felt.

expert panelists [2] = assay: Test Example 3: equivalent carbon dioxide gas pressure by paired comparison; format: in vivo, human; details: base 1.3 kg/cm^2, polygodial 10 ppb (Example 7)
From the text: The strength of carbonate stimulation of the carbonated water of Example 7 prepared by adding the Persicaria hydropiper extract of Production Example 1 to the carbonated water for evaluation of Preparation Example 1 (1.3 kg/cm^2) and the strength of carbonate stimulation of the carbonated waters described in Table 3 (1.4 kg/cm^2, 1.6 kg/cm^2, 1.9 kg/cm^2) separately prepared as a control were compared by 18 to 20 expert panelists. The number of panelists who judged that the carbonated water of Example 7 had strong carbonation and the selectivity of the carbonated water of Example 7 are shown in Table 3.
Furthermore, the relation between the concentration of carbon dioxide gas in the control product and the selectivity of the carbonated water of Example 7 was plotted (see FIG. 1).
Thus, it is considered that addition of polygodial has the same effect as increasing the pressure of carbon dioxide gas by 0.3 kg/cm^2.

[3] = Decomposition of polygodial on distillation; format: physicochemical; details: yield significantly reduced
From the text: Thus, distillation needs to be performed under reduced pressure using a known vacuum pump such as oil rotary pump, a mechanical booster pump and a diffusion pump.

expert panelists [4] = assay: Test Example 1: sensory evaluation of carbonated water with polygodial; format: in vivo, human
Protocol: Carbonated water for evaluation was prepared by diluting commercially available carbonated water (pressure of carbon dioxide gas before opening 3.0 kg/cm^2) with water such that the pressure of carbon dioxide gas was 1.3 kg/cm^2.
Polygodial (manufactured by Wako Pure Chemical Industries, Ltd.) was added to the carbonated water for evaluation of Preparation Example 1 such that the concentration was as shown in Table 1 described later and this was referred to as Comparative Examples 1 and 2, and Examples 1 to 6.
20 ppm of the Persicaria hydropiper extract of Production Example 1 was added to the carbonated water for evaluation of Preparation Example 1 and this was referred to as Example 7.
0.05 ppm of Tasmannia lanceolata oil (manufactured by ESSENTIAL OILS OF TASMANIA PTY LTD, polygodial content 20%) was added to the carbonated water for evaluation of Preparation Example 1 and this was referred to as Example 8. […]
Sensory evaluation was performed by 10 expert panelists based on the following Evaluation criteria using a product to which polygodial was not added as a control. For the strength of an offensive taste and odor, the average of the score of the 10 panelists was calculated and determined as the result of evaluation. […]

| SMILES | Timing of the effect of enhancing carbonation sensation (expert panelists [1]) | Increase of pressure of carbon dioxide gas having the same effect as addition (expert panelists [2]) [kg/cm^2] | Evaporating temperature at which polygodial is decomposed [3] | Enhancement of carbonation sensation (expert panelists [4]; polygodial 0.01 ppb) | Enhancement of carbonation sensation and pungency (expert panelists [4]; polygodial 400 ppb) |
| --- | --- | --- | --- | --- | --- |
| CC1(C)CCC[C@]2(C)[C@@H](C=O)C(C=O)=CC[C@@H]12 [polygodial, (1R,4aS,8aS)-5,5,8a-trimethyl-1,4,4a,6,7,8-hexahydronaphthalene-1,2-dicarboxaldehyde] | immediate effect | 0.3 | more than 150 °C | not enhanced | pungency appeared with enhanced carbonation sensation |
| C/C=C/C=C\CC/C=C/C(=O)NCC(C)C [spilanthol, (2E,6Z,8E)-N-Isobutyl-2,6,8-decatrienamide, reference compound] | relatively delayed | – | – | – | – |
